Test results published in patent US12116325B2, “Increased longevity of the nitrogen content of soil through improved liquid delivery formulations of nitrification inhibitors designed for urea and manure based fertilizers” (SOILGENIC TECHNOLOGIES, LLC, priority 2014, dated 2024).

Assay: Degradation study of actives in DMSO at 50° C. by LC
Format: physicochemical
Protocol: A degradation study was performed using 2-chloro-6-(trichloromethyl)pyridine/nBPT in DMSO.
A 2-chloro-6-(trichloromethyl)pyridine/NBPT=1/1(w/w) mixture was dissolved in DMSO. LC (liquid chromatography) was performed to analyze the content decrease versus time. All samples were sealed and protected under N2. All samples were stored 50° C.
A C18 column was used, and measured at 255 nm. Retention time: 40 min.
Temperature: 30° C. 15 μL injection. Peak area percentages were calculated to analyze the concentration and are shown in below Table 3.

Clc1cccc(C(Cl)(Cl)Cl)n1 [2-chloro-6-(trichloromethyl)pyridine]
Content remaining, LC peak area percentage (1 week): 100%
Content remaining, LC peak area percentage (2 week): 99%
Content remaining, LC peak area percentage (3 week): 99.4%
Content remaining, LC peak area percentage (4 week): 98.3%
Content remaining, LC peak area percentage (6 week): 95.3%
Content remaining, LC peak area percentage (7 week): 93.2%
Content remaining, LC peak area percentage (8 week): 92.3%
Content remaining, LC peak area percentage (9 week): 90.8%
Content remaining, LC peak area percentage (10 week): 88%
Content remaining, LC peak area percentage (11 week): 86.7%
Content remaining, LC peak area percentage (12 week): 86.4%
Content remaining, LC peak area percentage (13 week): 85%
Content remaining, LC peak area percentage (14 week): 84.33%
Content remaining, LC peak area percentage (15 week): 83.56%
Content remaining, LC peak area percentage (16 week): 81.45%
Content remaining, LC peak area percentage (17 week): 81%
Content remaining, LC peak area percentage (18 week): 80.09%

CCCCNP(N)(N)=S [n-butylthiophosphoric triamide]
Content remaining, LC peak area percentage (Week 1, 1/1 (w/w) mixture in DMSO, 50° C., sealed under N2): 100%
Content remaining, LC peak area percentage (Week 2, DMSO, 50° C.): 99.6%
Content remaining, LC peak area percentage (Week 3, DMSO, 50° C.): 98%
Content remaining, LC peak area percentage (Week 4, DMSO, 50° C.): 97.6%
Content remaining, LC peak area percentage (Week 6, DMSO, 50° C.): 96.5%
Content remaining, LC peak area percentage (Week 7, DMSO, 50° C.): 95.3%
Content remaining, LC peak area percentage (Week 8, DMSO, 50° C.): 94.7%
Content remaining, LC peak area percentage (Week 9, DMSO, 50° C.): 93%
Content remaining, LC peak area percentage (Week 10, DMSO, 50° C.): 92.2%
Content remaining, LC peak area percentage (Week 11, DMSO, 50° C.): 92.1%
Content remaining, LC peak area percentage (Week 12, DMSO, 50° C.): 91.7%
Content remaining, LC peak area percentage (Week 13, DMSO, 50° C.): 91%
Content remaining, LC peak area percentage (Week 14, DMSO, 50° C.): 90.88%
Content remaining, LC peak area percentage (Week 15, DMSO, 50° C.): 90.01%
Content remaining, LC peak area percentage (Week 16, DMSO, 50° C.): 99.55%
Content remaining, LC peak area percentage (Week 17, DMSO, 50° C.): 89.06%
Content remaining, LC peak area percentage (Week 18, DMSO, 50° C.): 88.6%
